# Source: paper PMC6140548 (Oncoimmunology, 2018)
# Biological target: HLA-A02:01 (MHC-I) on the surface of TAP-deficient T2 cells (Homo sapiens, UniProt P04439, D140Y/D185E/D98H/E176V/E277Q/G131W/G231S/I119V/I121R/I166T/I218V/L300P/L318F/N151K/N90K/P208A/P217A/Q86G/Q94H/R138H/R169H/T345S)
# Experiment: Peptide binding assay using TAP deficient T2 cells
# Type: cell-based
# Conditions: PAX7-encoded 9-mer; statement of the discussion
sequence,measurement,value
GLVSSISRV,affinity for HLA-A02:01 (in words),very high affinity
